Test results: PubChem BioAssay (NCI)
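Interpolation was linear, between the two tested concentrations surrounding the appropriate level; five concentrations were tested over 48 hours in 96-well plates. TGI denotes the concentration required for complete inhibition of growth.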

What was measured:
Test in all cases: NCI tumour cell line growth inhibition, 48 h
DMS 273 small cell lung = system: DMS 273 small cell lung
OVCAR-4 ovarian = system: OVCAR-4 ovarian
RPMI-8226 leukemia = system: RPMI-8226 leukemia
NCI-H522 lung = system: NCI-H522 lung
A549 NSCLC = system: A549 NSCLC
HT29 colon = system: HT29 colon
UACC-257 melanoma = system: UACC-257 melanoma
HL-60(TB) leukemia = system: HL-60(TB) leukemia
CCRF-CEM leukemia = system: CCRF-CEM leukemia
A498 renal = system: A498 renal
OVCAR-5 ovarian = system: OVCAR-5 ovarian
SNB-78 CNS = system: SNB-78 CNS
SF-295 CNS = system: SF-295 CNS
RXF 393 renal = system: RXF 393 renal
UACC-62 melanoma = system: UACC-62 melanoma
SNB-19 CNS = system: SNB-19 CNS
EKVX NSCLC = system: EKVX NSCLC
COLO 205 colon = system: COLO 205 colon
KM20L2 colon = system: KM20L2 colon
KM12 colon = system: KM12 colon
PC-3 prostate = system: PC-3 prostate
NCI-H460 lung = system: NCI-H460 lung
MDA-MB-231 breast = system: MDA-MB-231 breast
U251 CNS = system: U251 CNS
TK-10 renal = system: TK-10 renal
MCF7 breast = system: MCF7 breast
LOX IMVI melanoma = system: LOX IMVI melanoma
SF-268 CNS = system: SF-268 CNS
SK-MEL-5 melanoma = system: SK-MEL-5 melanoma
MALME-3M melanoma = system: MALME-3M melanoma
SN12C renal = system: SN12C renal
786-0 renal = system: 786-0 renal
T-47D breast = system: T-47D breast
M14 melanoma = system: M14 melanoma
OVCAR-8 ovarian = system: OVCAR-8 ovarian
SR leukemia = system: SR leukemia
SNB-75 CNS = system: SNB-75 CNS
SK-OV-3 ovarian = system: SK-OV-3 ovarian
HS 578T breast = system: HS 578T breast
HOP-62 NSCLC = system: HOP-62 NSCLC
SK-MEL-2 melanoma = system: SK-MEL-2 melanoma
LXFL 529 NSCLC = system: LXFL 529 NSCLC
UO-31 renal = system: UO-31 renal
ACHN renal = system: ACHN renal
IGROV1 ovarian = system: IGROV1 ovarian
SW-620 colon = system: SW-620 colon
OVCAR-3 ovarian = system: OVCAR-3 ovarian
DU-145 prostate = system: DU-145 prostate
HCC-2998 colon = system: HCC-2998 colon
CAKI-1 renal = system: CAKI-1 renal
NCI-H226 lung = system: NCI-H226 lung
MOLT-4 leukemia = system: MOLT-4 leukemia
SK-MEL-28 melanoma = system: SK-MEL-28 melanoma
SF-539 CNS = system: SF-539 CNS
MDA-N = system: MDA-N
MDA-MB-435 = system: MDA-MB-435
NCI-H23 lung = system: NCI-H23 lung
NCI/ADR-RES ovarian = system: NCI/ADR-RES ovarian
DMS 114 small cell lung = system: DMS 114 small cell lung
HOP-92 NSCLC = system: HOP-92 NSCLC
HCT-15 colon = system: HCT-15 colon
BT-549 breast = system: BT-549 breast
K-562 leukemia = system: K-562 leukemia
HCT-116 colon = system: HCT-116 colon

SMILES: O=C(O)CCSC(=S)Nc1ccc([N+](=O)[O-])cc1
- TGI (DMS 273 small cell lung): > 100 µM
- TGI (OVCAR-4 ovarian): > 100 µM
- TGI (RPMI-8226 leukemia): > 77.2 µM
- TGI (NCI-H522 lung): > 68000 nM
- TGI (A549 NSCLC): > 100 µM
- TGI (HT29 colon): > 100 µM
- TGI (UACC-257 melanoma): 55.1 µM
- TGI (HL-60(TB) leukemia): 48.6 µM
- TGI (CCRF-CEM leukemia): > 68.2 µM
- TGI (A498 renal): > 100 µM
- TGI (OVCAR-5 ovarian): > 100 µM
- TGI (SNB-78 CNS): > 100 µM
- TGI (SF-295 CNS): > 100 µM
- TGI (RXF 393 renal): > 100 µM
- TGI (UACC-62 melanoma): 46.7 µM
- TGI (SNB-19 CNS): > 100 µM
- TGI (EKVX NSCLC): > 100 µM
- TGI (COLO 205 colon): > 100 µM
- TGI (KM20L2 colon): > 100 µM
- TGI (KM12 colon): > 100 µM
- TGI (PC-3 prostate): > 100 µM
- TGI (NCI-H460 lung): > 100 µM
- TGI (MDA-MB-231 breast): > 100 µM
- TGI (U251 CNS): > 100 µM
- TGI (TK-10 renal): > 100 µM
- TGI (MCF7 breast): > 100 µM
- TGI (LOX IMVI melanoma): > 75.7 µM
- TGI (SF-268 CNS): > 100 µM
- TGI (SK-MEL-5 melanoma): 34.5 µM
- TGI (MALME-3M melanoma): > 100 µM
- TGI (SN12C renal): > 100 µM
- TGI (786-0 renal): > 100 µM
- TGI (T-47D breast): > 100 µM
- TGI (M14 melanoma): > 100 µM
- TGI (OVCAR-8 ovarian): > 100 µM
- TGI (SR leukemia): 52.9 µM
- TGI (SNB-75 CNS): > 100 µM
- TGI (SK-OV-3 ovarian): > 100 µM
- TGI (HS 578T breast): > 100 µM
- TGI (HOP-62 NSCLC): > 100 µM
- TGI (SK-MEL-2 melanoma): > 100 µM
- TGI (LXFL 529 NSCLC): > 100 µM
- TGI (UO-31 renal): > 100 µM
- TGI (ACHN renal): > 83 µM
- TGI (IGROV1 ovarian): > 100 µM
- TGI (SW-620 colon): > 100 µM
- TGI (OVCAR-3 ovarian): > 87.8 µM
- TGI (DU-145 prostate): > 100 µM
- TGI (HCC-2998 colon): > 100 µM
- TGI (CAKI-1 renal): > 100 µM
- TGI (NCI-H226 lung): > 100 µM
- TGI (MOLT-4 leukemia): > 68 µM
- TGI (SK-MEL-28 melanoma): > 100 µM
- TGI (SF-539 CNS): > 75.5 µM
- TGI (MDA-N): 58.4 µM
- TGI (MDA-MB-435): 61.3 µM
- TGI (NCI-H23 lung): > 100 µM
- TGI (NCI/ADR-RES ovarian): > 100 µM
- TGI (DMS 114 small cell lung): > 100 µM
- TGI (HOP-92 NSCLC): 68.9 µM
- TGI (HCT-15 colon): > 100 µM
- TGI (BT-549 breast): > 100 µM
- TGI (K-562 leukemia): > 63 µM
- TGI (HCT-116 colon): > 100 µM

SMILES: Cc1cc(N(CCOS(C)(=O)=O)CCOS(C)(=O)=O)ccc1C=Nc1ccc(-c2csc(-c3ccc(Br)cc3)n2)cc1
- TGI (OVCAR-4 ovarian): 84.9 µM
- TGI (RPMI-8226 leukemia): > 100 µM
- TGI (NCI-H522 lung): 1680 nM
- TGI (A549 NSCLC): 53.1 µM
- TGI (HT29 colon): 44.6 µM
- TGI (UACC-257 melanoma): 56.8 µM
- TGI (HL-60(TB) leukemia): 55.9 µM
- TGI (CCRF-CEM leukemia): > 100 µM
- TGI (A498 renal): 6.4 µM
- TGI (OVCAR-5 ovarian): 54.9 µM
- TGI (SF-295 CNS): 50.5 µM
- TGI (RXF 393 renal): 6.55 µM
- TGI (UACC-62 melanoma): 22.3 µM
- TGI (SNB-19 CNS): > 88.1 µM
- TGI (EKVX NSCLC): 37.7 µM
- TGI (COLO 205 colon): 2.89 µM
- TGI (KM12 colon): 21.6 µM
- TGI (PC-3 prostate): 86.8 µM
- TGI (NCI-H460 lung): 12.7 µM
- TGI (MDA-MB-231 breast): 39.2 µM
- TGI (U251 CNS): 60.5 µM
- TGI (TK-10 renal): 36.9 µM
- TGI (MCF7 breast): 43.8 µM
- TGI (LOX IMVI melanoma): 36.5 µM
- TGI (SF-268 CNS): > 80.2 µM
- TGI (SK-MEL-5 melanoma): 34.1 µM
- TGI (MALME-3M melanoma): 67.2 µM
- TGI (SN12C renal): > 79.7 µM
- TGI (786-0 renal): 20.7 µM
- TGI (T-47D breast): 80.1 µM
- TGI (M14 melanoma): 50.1 µM
- TGI (OVCAR-8 ovarian): 61.6 µM
- TGI (SR leukemia): > 94.3 µM
- TGI (SNB-75 CNS): 23.8 µM
- TGI (SK-OV-3 ovarian): 15.6 µM
- TGI (HS 578T breast): > 97.3 µM
- TGI (HOP-62 NSCLC): 26.4 µM
- TGI (SK-MEL-2 melanoma): 61.7 µM
- TGI (UO-31 renal): 33.6 µM
- TGI (ACHN renal): 13.8 µM
- TGI (IGROV1 ovarian): 22.5 µM
- TGI (SW-620 colon): > 100 µM
- TGI (OVCAR-3 ovarian): 44.3 µM
- TGI (DU-145 prostate): 57.4 µM
- TGI (HCC-2998 colon): 31.8 µM
- TGI (CAKI-1 renal): 3.96 µM
- TGI (NCI-H226 lung): 62.3 µM
- TGI (MOLT-4 leukemia): > 69.5 µM
- TGI (SK-MEL-28 melanoma): 99.6 µM
- TGI (SF-539 CNS): 9.64 µM
- TGI (MDA-N): 56.6 µM
- TGI (MDA-MB-435): 58.8 µM
- TGI (NCI-H23 lung): 41.7 µM
- TGI (NCI/ADR-RES ovarian): 90.7 µM
- TGI (HOP-92 NSCLC): 38.3 µM
- TGI (HCT-15 colon): 50.3 µM
- TGI (BT-549 breast): > 76.4 µM
- TGI (K-562 leukemia): > 97.1 µM
- TGI (HCT-116 colon): > 87.9 µM

SMILES: C=CCC1C(=O)Nc2cccc3ncn(c23)C1=O (stereo not drawn)
- TGI (OVCAR-4 ovarian): > 100 µM
- TGI (RPMI-8226 leukemia): > 100 µM
- TGI (A549 NSCLC): > 100 µM
- TGI (HT29 colon): > 100 µM
- TGI (UACC-257 melanoma): > 100 µM
- TGI (HL-60(TB) leukemia): > 100 µM
- TGI (CCRF-CEM leukemia): > 100 µM
- TGI (A498 renal): > 100 µM
- TGI (OVCAR-5 ovarian): > 100 µM
- TGI (SF-295 CNS): > 100 µM
- TGI (RXF 393 renal): > 100 µM
- TGI (UACC-62 melanoma): > 100 µM
- TGI (SNB-19 CNS): > 100 µM
- TGI (EKVX NSCLC): > 100 µM
- TGI (COLO 205 colon): > 100 µM
- TGI (KM12 colon): > 100 µM
- TGI (PC-3 prostate): > 100 µM
- TGI (NCI-H460 lung): > 100 µM
- TGI (MDA-MB-231 breast): > 100 µM
- TGI (U251 CNS): > 100 µM
- TGI (MCF7 breast): > 100 µM
- TGI (SF-268 CNS): > 100 µM
- TGI (SK-MEL-5 melanoma): > 100 µM
- TGI (MALME-3M melanoma): > 100 µM
- TGI (SN12C renal): > 100 µM
- TGI (786-0 renal): > 100 µM
- TGI (T-47D breast): > 100 µM
- TGI (M14 melanoma): > 100 µM
- TGI (OVCAR-8 ovarian): > 100 µM
- TGI (SR leukemia): > 100 µM
- TGI (SNB-75 CNS): > 100 µM
- TGI (SK-OV-3 ovarian): > 100 µM
- TGI (HS 578T breast): > 100 µM
- TGI (HOP-62 NSCLC): > 100 µM
- TGI (SK-MEL-2 melanoma): > 100 µM
- TGI (UO-31 renal): > 100 µM
- TGI (ACHN renal): > 100 µM
- TGI (IGROV1 ovarian): > 100 µM
- TGI (SW-620 colon): > 100 µM
- TGI (OVCAR-3 ovarian): > 100 µM
- TGI (DU-145 prostate): > 100 µM
- TGI (CAKI-1 renal): > 100 µM
- TGI (NCI-H226 lung): > 100 µM
- TGI (MOLT-4 leukemia): > 100 µM
- TGI (SK-MEL-28 melanoma): > 100 µM
- TGI (SF-539 CNS): > 100 µM
- TGI (MDA-N): > 100 µM
- TGI (MDA-MB-435): > 100 µM
- TGI (NCI-H23 lung): > 100 µM
- TGI (NCI/ADR-RES ovarian): > 100 µM
- TGI (HOP-92 NSCLC): > 100 µM
- TGI (HCT-15 colon): > 100 µM
- TGI (BT-549 breast): > 100 µM
- TGI (K-562 leukemia): > 100 µM
- TGI (HCT-116 colon): > 100 µM
